# Measured values from the supplement of paper PMC10307832.
# Experiments:
# Test in all cases: relative viability (nuclei count vs DMSO), 5 days (fraction); higher = more cells survive
# Irinotecan + Luminespib = compound: CCc1c2c(nc3ccc(OC(=O)N4CCC(N5CCCCC5)CC4)cc13)-c1cc3c(c(=O)n1C2)COC(=O)[C@]3(O)CC [Irinotecan] + CCNC(=O)c1noc(-c2cc(C(C)C)c(O)cc2O)c1-c1ccc(CN2CCOCC2)cc1 [Luminespib] (partner 0.01 µM)
# Method in brief: (§1)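 Lung cancer cell lines, seeded in 1536-well plates, were treated the following day by pin tool with a single drug or with five library-drug doses (not always all listed) in √10 steps on top of a fixed anchor-drug dose. Cells were fixed and nuclei stained in one step after 5 days, and nuclei were counted. Relative viability is the nuclei count for treated wells divided by that for vehicle wells, reported as medians of duplicate plates.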
# MK-8033 + Luminespib = compound: Cn1cc(-c2cnc3ccc4ccc(CS(=O)(=O)NCc5ccccn5)cc4c(=O)c3c2)cn1 [MK-8033] + CCNC(=O)c1noc(-c2cc(C(C)C)c(O)cc2O)c1-c1ccc(CN2CCOCC2)cc1 [Luminespib] (partner 0.01 µM)
# Method in brief: as §1
# MK-8033 + Crizotinib = compound: Cn1cc(-c2cnc3ccc4ccc(CS(=O)(=O)NCc5ccccn5)cc4c(=O)c3c2)cn1 [MK-8033] + C[C@@H](Oc1cc(-c2cnn(C3CCNCC3)c2)cnc1N)c1c(Cl)ccc(F)c1Cl [Crizotinib] (partner 1 µM)
# Method in brief: as §1
# MK-8033 + Phenformin = compound: Cn1cc(-c2cnc3ccc4ccc(CS(=O)(=O)NCc5ccccn5)cc4c(=O)c3c2)cn1 [MK-8033] + N=C(N)NC(=N)NCCc1ccccc1 [Phenformin] (partner 250 µM)
# Method in brief: as §1
Cell Line,relative viability (Irinotecan + Luminespib; first compound 0.6325 µM),relative viability (Irinotecan + Luminespib; first compound 2 µM),relative viability (Irinotecan + Luminespib; first compound 6.325 µM),relative viability (Irinotecan + Luminespib; first compound 20 µM),relative viability (MK-8033 + Luminespib; first compound 0.02 µM),relative viability (MK-8033 + Luminespib; first compound 0.06325 µM),relative viability (MK-8033 + Luminespib; first compound 0.2 µM),relative viability (MK-8033 + Luminespib; first compound 0.6325 µM),relative viability (MK-8033 + Luminespib; first compound 2 µM),relative viability (MK-8033 + Crizotinib; first compound 0.02 µM),relative viability (MK-8033 + Crizotinib; first compound 0.06325 µM),relative viability (MK-8033 + Crizotinib; first compound 0.2 µM),relative viability (MK-8033 + Crizotinib; first compound 0.6325 µM),relative viability (MK-8033 + Crizotinib; first compound 2 µM),relative viability (MK-8033 + Phenformin; first compound 0.02 µM),relative viability (MK-8033 + Phenformin; first compound 0.06325 µM),relative viability (MK-8033 + Phenformin; first compound 0.2 µM),relative viability (MK-8033 + Phenformin; first compound 0.6325 µM),relative viability (MK-8033 + Phenformin; first compound 2 µM)
SK-LU-1,0.202,0.241,0.244,0.236,0.188,0.236,0.223,0.188,0.192,0.873,0.874,0.8,0.835,1.02,0.519,0.505,0.518,0.497,0.53
Calu-6,,,,,,,,,,0.831,0.77,0.704,0.828,0.695,,,,,
NCI-H522,,0.645,0.468,0.495,0.987,1.02,0.955,1.29,0.946,,,,,,0.645,0.7,0.707,0.54,0.699
LOU-NH91,0.371,0.323,0.301,0.28,0.318,0.335,0.349,0.379,0.326,0.724,,0.715,0.732,0.75,0.716,0.473,0.717,0.715,0.768
HCC-366,,,,,,,,,,0.45,0.525,0.59,0.363,0.504,0.725,0.644,0.601,0.618,0.607
CAL-12T,,0.695,0.2,0.253,0.263,0.305,0.518,0.319,0.53,0.62,0.608,0.646,0.693,0.474,0.56,0.518,0.444,0.697,0.545
PC-3 [JPC-3],0.642,0.431,0.334,0.36,0.728,0.618,0.713,0.663,0.713,0.963,,0.902,0.981,0.936,0.482,0.426,0.469,0.475,0.503
NCI-H2087,0.158,0.183,0.2,0.261,0.119,0.174,0.148,0.242,0.148,0.957,0.746,0.883,0.989,0.836,0.5,0.434,0.417,0.435,0.386
NCI-H1395,0.76,0.651,0.388,0.534,0.764,0.559,0.526,0.735,0.584,,,,,,0.448,0.412,0.43,0.45,0.416
